Values joined by “and” are separate entries in the source; they are usually repeats but may differ in a detail not shown here. Identical values can stand only once.
Key:
[1] = test system: wild type tobacco; assay: Kill curve of glyphosate in tissue culture; type: in vivo, Nicotiana tabaccum var Samsun; conditions: 0.005 mM in MS medium, two weeks
From the text: Selection on glyphosate A kill curve is constructed for growth of tobacco in tissue culture on glyphosate containing medium. This is done by inserting a stem segment ˜6 mm long and carrying a leaf node into MS medium containing a range of glyphosate isopropylamine concentrations. Four/five stem segments are used at each concentration.

[2] = test system: primary transformants from pDV6-Bin; assay: Growth on herbicide-containing tissue culture medium; type: in vivo, Tobacco; conditions: a number of transgenics; 0.01 and 0.05 mM glyphosate; 10 and 40 ppm alachlor
[3] = test system: Wild type plants; assay: Pre-em/post-em herbicide treatment (Table 1); type: in vivo, Tobacco; conditions: post-em 800 g/ha
[4] = test system: Wildtype tobacco; assay: Glyphosate spray test (Table 8 control); type: in vivo, Nicotiana tabaccum var Samsun
Experimental: (§1) A kill curve is established for the effect of glyphosate on wild type tobacco. Wild type tobacco growing in tissue culture is sub-cultured by taking stem segments and growing in fresh medium to generate 20 new plants. These are grown in tissue culture for one month before transfer to 3 inch pots in John Innes No 3 compost. They are initially covered in fleece to protect them. After uncovering they are allowed to acclimatise for four days before being sprayed. After spraying watering is only into the saucers i.e. no water is allowed to touch the leaves for five days. Scoring was done 8 days and 28 days after treatment.
(§2) Following construction of the glyphosate kill curve, a number of pDV1, 2 and 3 lines are spray tested with appropriate rates of glyphosate.

[5] = test system: wild type controls; assay: Growth on herbicide-containing tissue culture medium; type: in vivo, Tobacco; conditions: 0.01 and 0.05 mM glyphosate; 10 and 40 ppm alachlor
[6] = test system: pDV3 primary transformants (GOX/EPSPS tobacco); assay: Glyphosate spray test of pDV3 lines; type: in vivo, Nicotiana tabaccum var Samsun; design: scale not given here
Experimental: as §1, §2

[7] = test system: DV6/HPPD tobacco; assay: Herbicide trial of DV6/HPPD cross (Example 10); type: in vivo; conditions: 800 g/ha on seedlings surviving 300 g/ha ZA1296
[8] = test system: pDV6 plants expressing both glyphosate resistance genes and GST; assay: Pre-em/post-em herbicide treatment of DV6 plants (Table 1); design: species or system Tobacco; conditions: in vivo
[9] = test system: tobacco from cross DV3 #43B x ET4-208; assay: Glyphosate spray of DV3 #43B x ET4-208 seedlings; type: in vivo; conditions: 500 and 800 g/ha on seedlings tolerant to bleaching herbicides; scored 14 and 28 DAT
[10] = test system: tobacco plants transformed with the Pseudomonas 4-HPPD gene; assay: Explant bleaching test on MS agar, 4-HPPD transformants (Example 1); type: in vivo, Nicotiana tabacum var Samsun; conditions: subset of ZA1296 resistant plants
[11] = test system: plants transformed with the Synechocystis sp. PCC6803 4-HPPD gene; assay: Explant bleaching test on MS agar, 4-HPPD transformants (Example 2); type: in vivo, Potato and tomato; conditions: subset of ZA1296 resistant plants
[12] = no pre-em, third line (plant not given)

CC(C)N.O=C(O)CNCP(=O)(O)O [Glyphosate isopropylamine]
Growth of explant [1]: No growth in any organ

O=C(O)CNCP(=O)(O)O [Glyphosate, glyphosate]
growth on tissue culture medium [2]: grow successfully | % Phytotoxicity (mean, 21 DAT) ([3]; Wild type, no pre-em treatment): 86.25% | replicate score for damage, replicate a [3, 12]: 90 | replicate score for damage, replicate b [3, 12]: 90 | replicate score for damage, replicate c [3, 12]: 90 | replicate score for damage, replicate d [3, 12]: 75 | dose/response to glyphosate spray (damage) ([4]; 12.33 g/ha): 2 | dose/response to glyphosate spray (damage) ([4]; 37 g/ha): 3 | dose/response to glyphosate spray (damage) ([4]; 100 g/ha): 20 | dose/response to glyphosate spray (damage) ([4]; 300 g/ha): 80 | dose/response to glyphosate spray (damage) ([4]; 1000 g/ha): 93 | growth on tissue culture medium [5]: fail to | dose/response to glyphosate spray (damage) ([6]; pDV3 #11, 100 g/ha): 0 | dose/response to glyphosate spray (damage) ([6]; pDV3 #11, 300 g/ha): 0 | dose/response to glyphosate spray (damage) ([6]; pDV3 #11, 1000 g/ha): 25 | dose/response to glyphosate spray (damage) ([6]; pDV3 #11, 3000 g/ha): 70 | dose/response to glyphosate spray (damage) ([6]; pDV3 #11, 9000 g/ha): 80 | dose/response to glyphosate spray (damage) ([6]; pDV3 #14, 100 g/ha): 7 | dose/response to glyphosate spray (damage) ([6]; pDV3 #14, 300 g/ha): 22 | dose/response to glyphosate spray (damage) ([6]; pDV3 #14, 1000 g/ha): 13 | dose/response to glyphosate spray (damage) ([6]; pDV3 #14, 3000 g/ha): 33 | dose/response to glyphosate spray (damage) ([6]; pDV3 #14, 9000 g/ha): 76 | dose/response to glyphosate spray (damage) ([6]; pDV3 #19, 100 g/ha): 0 | dose/response to glyphosate spray (damage) ([6]; pDV3 #19, 300 g/ha): 0 | dose/response to glyphosate spray (damage) ([6]; pDV3 #19, 1000 g/ha): 0 | dose/response to glyphosate spray (damage) ([6]; pDV3 #19, 3000 g/ha): 35 | dose/response to glyphosate spray (damage) ([6]; pDV3 #19, 9000 g/ha): 80 | dose/response to glyphosate spray (damage) ([6]; pDV3 #21, 100 g/ha): 0 | dose/response to glyphosate spray (damage) ([6]; pDV3 #21, 300 g/ha): 5 | dose/response to glyphosate spray (damage) ([6]; pDV3 #21, 1000 g/ha): 0 | dose/response to glyphosate spray (damage) ([6]; pDV3 #21, 3000 g/ha): 24 | dose/response to glyphosate spray (damage) ([6]; pDV3 #21, 9000 g/ha): 78 | dose/response to glyphosate spray (damage) ([6]; pDV3 #31, 100 g/ha): 12 | dose/response to glyphosate spray (damage) ([6]; pDV3 #31, 300 g/ha): 0 | dose/response to glyphosate spray (damage) ([6]; pDV3 #31, 1000 g/ha): 4 | dose/response to glyphosate spray (damage) ([6]; pDV3 #31, 3000 g/ha): 26 | dose/response to glyphosate spray (damage) ([6]; pDV3 #31, 9000 g/ha): 78 | dose/response to glyphosate spray (damage) ([6]; pDV3 #34, 100 g/ha): 0 | dose/response to glyphosate spray (damage) ([6]; pDV3 #34, 300 g/ha): 0 | dose/response to glyphosate spray (damage) ([6]; pDV3 #34, 1000 g/ha): 6 | dose/response to glyphosate spray (damage) ([6]; pDV3 #34, 3000 g/ha): 30 | dose/response to glyphosate spray (damage) ([6]; pDV3 #34, 9000 g/ha): 63 | dose/response to glyphosate spray (damage) ([6]; pDV3 #36, 100 g/ha): 0 | dose/response to glyphosate spray (damage) ([6]; pDV3 #36, 300 g/ha): 0 | dose/response to glyphosate spray (damage) ([6]; pDV3 #36, 1000 g/ha): 0 | dose/response to glyphosate spray (damage) ([6]; pDV3 #36, 3000 g/ha): 0 | dose/response to glyphosate spray (damage) ([6]; pDV3 #36, 9000 g/ha): 0 | dose/response to glyphosate spray (damage) ([6]; pDV3 #37, 100 g/ha): 0 | dose/response to glyphosate spray (damage) ([6]; pDV3 #37, 300 g/ha): 0 | dose/response to glyphosate spray (damage) ([6]; pDV3 #37, 1000 g/ha): 9 | dose/response to glyphosate spray (damage) ([6]; pDV3 #37, 3000 g/ha): 24 | dose/response to glyphosate spray (damage) ([6]; pDV3 #37, 9000 g/ha): 72 | dose/response to glyphosate spray (damage) ([6]; pDV3 #43, 100 g/ha): 0 | dose/response to glyphosate spray (damage) ([6]; pDV3 #43, 300 g/ha): 0 | dose/response to glyphosate spray (damage) ([6]; pDV3 #43, 1000 g/ha): 0 | dose/response to glyphosate spray (damage) ([6]; pDV3 #43, 3000 g/ha): 6 | dose/response to glyphosate spray (damage) ([6]; pDV3 #43, 9000 g/ha): 73 | dose/response to glyphosate spray (damage) ([6]; pDV3 #44, 100 g/ha): 0 | dose/response to glyphosate spray (damage) ([6]; pDV3 #44, 300 g/ha): 40 | dose/response to glyphosate spray (damage) ([6]; pDV3 #44, 1000 g/ha): 45 | dose/response to glyphosate spray (damage) ([6]; pDV3 #44, 3000 g/ha): 78 | dose/response to glyphosate spray (damage) ([6]; pDV3 #44, 9000 g/ha): 85 | dose/response to glyphosate spray (damage) ([6]; pDV3 #45, 100 g/ha): 0 | dose/response to glyphosate spray (damage) ([6]; pDV3 #45, 300 g/ha): 0 | dose/response to glyphosate spray (damage) ([6]; pDV3 #45, 1000 g/ha): 3 | dose/response to glyphosate spray (damage) ([6]; pDV3 #45, 3000 g/ha): 9 | dose/response to glyphosate spray (damage) ([6]; pDV3 #45, 9000 g/ha): 70 | dose/response to glyphosate spray (damage) ([6]; pDV3 #47, 100 g/ha): 5 | dose/response to glyphosate spray (damage) ([6]; pDV3 #47, 300 g/ha): 0 | dose/response to glyphosate spray (damage) ([6]; pDV3 #47, 1000 g/ha): 0 | dose/response to glyphosate spray (damage) ([6]; pDV3 #47, 3000 g/ha): 11 | dose/response to glyphosate spray (damage) ([6]; pDV3 #47, 9000 g/ha): 72 | dose/response to glyphosate spray (damage) ([6]; pDV3 #60, 100 g/ha): 0 | dose/response to glyphosate spray (damage) ([6]; pDV3 #60, 300 g/ha): 0 | dose/response to glyphosate spray (damage) ([6]; pDV3 #60, 1000 g/ha): 0 | dose/response to glyphosate spray (damage) ([6]; pDV3 #60, 3000 g/ha): 19 | dose/response to glyphosate spray (damage) ([6]; pDV3 #60, 9000 g/ha): 63 | dose/response to glyphosate spray (damage) ([6]; pDV3 #64, 100 g/ha): 0 | dose/response to glyphosate spray (damage) ([6]; pDV3 #64, 300 g/ha): 5 | dose/response to glyphosate spray (damage) ([6]; pDV3 #64, 1000 g/ha): 0 | dose/response to glyphosate spray (damage) ([6]; pDV3 #64, 3000 g/ha): 12 | dose/response to glyphosate spray (damage) ([6]; pDV3 #64, 9000 g/ha): 63 | tolerance to spray [7]: demonstrate tolerance | replicate score for damage, replicate a [8]: 75 and 100 | replicate score for damage, replicate b [8]: 0 | replicate score for damage, replicate c [8]: 0 | replicate score for damage, replicate d [8]: 0 and 95 | resistance to post-emergence spray [9]: resistant

CS(=O)(=O)c1cc(C(F)(F)F)ccc1C(=O)c1cnoc1C1CC1 [Isoxaflutole, 5-cyclopropyl-4-(2-methylsulphonyl-4-trifluoromethylbenzoyl)isoxazole]
resistance of the herbicide resistant transgenic plants [10]: even more resistant | resistance of the herbicide resistant transgenic plants [11]: resistant

Source: patent US20030041357A1, “Herbicide resistant plants” (priority 1996, published 2003)
